The nature of data set [1]: Critical micelle concentration (CMC) by ANS fluorescence dye binding. As to conditions: in water at 25° C. The format is physicochemical. As for the experimental part:
See De Vendittis et al., Anal. Biochem. 1981, 115, 278-86. The molecule ANS has a weak fluorescence in detergent concentrations below CMC, but becomes highly fluorescent when incorporated into the hydrophobic micellar environment. […] The emission fluorescence intensities at 465 nm were recorded (λex=405 nm) on a DXT880 multiplate spectrofluorimeter (Beckman Coulter). The CMC is defined as the breakpoint in the fluorescence (FIG. 4).
See also De Vendittis et al., Anal. Biochem. 1981, 115, 278-86.

Data set [2] is described as follows: Hydrodynamic radius of detergent micelles (DynaPro/Titan instrument). The data set is classed as physicochemical. As to conditions: measured at a concentration of 0.03% in water.
The target in data set [3] is T1, MsbA from S. typhimurium (ST-MsbA) (Salmonella typhimurium, UniProt P63359).
T1 construct: made in house
In words: Linked enzyme ATPase assay of detergent-solubilized MsbA (activity and stability). The data set is classed as biochemical. As for the experimental part:
The purified protein in the candidate detergent was assayed for activity by a standard linked enzyme ATPase assay to probe the protein stability.
MsbA was prepared from S. typhimurium as described previously (Reyes, C. L.; Chang, G. Acta Crystallograph Sect. F Struct. Biol. Cryst. Commun. 2005, 61, 655-8). […] The supernatant after centrifugation at 200,000 g for 45 min was subjected to Ni-affinity column for purification. The protein extraction and purity was evaluated by SDS-PAGE. MsbA was further purified by anion-exchange chromatography and desalting column for the stability evaluation which was followed by ATPase activity measurement.
ATPase activity was measured using an ATP-regenerating system described by Vogel and Steinhart (Biochemistry 1976, 15, 208-16), and modified by Urbatsch et al. (J. Biol. Chem. 1995, 270, 19383-90). Briefly, 1-2 μg of detergent solubilized MsbA was added to 100 μL of Linked Enzyme (LE) buffer at 37° C. containing 10 mM ATP, 12 mM MgCl2, 6 mM phosphoenolpyruvate (PEP), 1 mM NADH, 10 units of lactate dehydrogenase (LDH), 10 units of pyruvate kinase (PK), and 50 mM Tris-HCl (pH 7.5). ATP hydrolysis was measured as the decrease in absorbance of NADH at 340 nm using a DXT880 multiplate spectrofluorimeter (Beckman-Coulter). ATPase activity was calculated using the following equation: […], where ΔOD is the change in optical density and […].

For data set [4], the target named is T2, MsbA (Salmonella typhimurium, UniProt P63359). The data set can be described thus: Detergent binding measurement using glycosidic colorimetric assay. As to conditions: MsbA fractions from chromatography. Details: made in house; species or system S. typhimurium.
For data set [5], the target named is T2, MsbA. The data set can be described thus: Small-angle x-ray scattering of MsbA in detergent. As to conditions: separation of PDC signal from empty micelles. The text has this:
The facial amphiphiles self-assemble to smaller micelles and form smaller protein-detergent complexes (PDCs) than the conventional detergents. Because of these unique properties, facial amphiphiles can be used for SAX (small-angle x-ray scattering) studies of integral membrane proteins. A major challenge for applying SAXS to membrane protein structural analysis is the need to separate the scattering signal of the PDC from that of the empty micelles. With conventional head-to-tail detergents, it is difficult to achieve this goal because of the presence of the large detergent micelles and the characteristic second peak in the scattering intensity. Remarkably, the facial amphiphiles described herein allow one to separate the scattering signal of the PDC from that of the empty micelles.

In the next data set the target is T3, bacteriorhodopsin (BR) (Halobacterium salinarum, UniProt P02945).
T3 construct: BR was isolated from purple membrane of Halobacterium halobium (strain S9); endogenous in cells; host or cells: Halobacterium halobium strain S9, purple membrane
T3 sequence (P02945 14-262): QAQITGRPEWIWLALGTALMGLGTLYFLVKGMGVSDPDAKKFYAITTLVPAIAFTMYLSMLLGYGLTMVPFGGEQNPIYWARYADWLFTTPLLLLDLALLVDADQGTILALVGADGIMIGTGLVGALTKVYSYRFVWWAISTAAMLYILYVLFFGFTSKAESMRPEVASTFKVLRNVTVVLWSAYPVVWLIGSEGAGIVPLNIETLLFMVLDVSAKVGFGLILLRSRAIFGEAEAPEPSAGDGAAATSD
In words: Stabilization of bacteriorhodopsin followed by UV-Vis absorption. On the set-up: species or system Halobacterium halobium. As to conditions: for stability of BR stored in the detergent: pH 5.6, RT, A1 for more than 5 months. From the text: BR has a characteristic adsorption at visible wavelength (λmax: ˜550 nm in detergents) due to the bound retinal ligand in the interior of the transmembrane region, serving as an excellent system for the testing of designed amphiphiles.
BR was isolated from purple membrane of Halobacterium halobium (strain S9) and purified in 1.2% β-octyl-glycoside (OG) as reported in literature (Landau, E. M.; Rosenbusch, J. P. Proc. Natl. Acad. Sci. USA 1996, 93, 14532-5). […] After several dilution-concentration cycles, the final OG concentration was <1% of its CMC (0.53%). […] The UV-Vis absorption spectra of BR samples were recorded on a DXT880 multiplate spectrofluorimeter (Beckman Coulter).

The conditions of data set [6]: known detergents, comparison values; cited from earlier work.
The target of the next data set is T4, cytochrome c oxidase ba3 (Thermus thermophilus, UniProt P82543+Q5SJ79+Q5SJ80).
T4 sequence (Q5SJ79 1-562): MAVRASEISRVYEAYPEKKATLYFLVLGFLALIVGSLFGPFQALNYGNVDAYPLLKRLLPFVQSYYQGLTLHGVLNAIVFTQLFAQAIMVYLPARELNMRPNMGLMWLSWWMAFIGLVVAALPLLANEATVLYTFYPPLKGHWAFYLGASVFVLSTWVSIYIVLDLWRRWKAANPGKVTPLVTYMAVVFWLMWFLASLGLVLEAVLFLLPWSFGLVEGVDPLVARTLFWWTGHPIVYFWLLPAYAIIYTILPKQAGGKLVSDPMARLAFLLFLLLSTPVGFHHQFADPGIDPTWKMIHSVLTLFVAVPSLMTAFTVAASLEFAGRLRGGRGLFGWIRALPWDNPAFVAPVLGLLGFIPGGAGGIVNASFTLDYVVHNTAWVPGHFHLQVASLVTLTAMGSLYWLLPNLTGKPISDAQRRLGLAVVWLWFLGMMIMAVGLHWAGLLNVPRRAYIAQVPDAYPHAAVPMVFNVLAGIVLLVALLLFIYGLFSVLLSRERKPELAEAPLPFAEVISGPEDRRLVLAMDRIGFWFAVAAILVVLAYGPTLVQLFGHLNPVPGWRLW
T4 sequence (Q5SJ80 1-168): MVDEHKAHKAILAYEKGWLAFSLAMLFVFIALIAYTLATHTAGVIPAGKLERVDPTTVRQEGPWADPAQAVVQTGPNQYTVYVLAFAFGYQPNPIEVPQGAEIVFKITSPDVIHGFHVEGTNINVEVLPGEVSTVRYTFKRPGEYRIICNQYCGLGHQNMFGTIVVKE
T4 sequence (P82543 1-34): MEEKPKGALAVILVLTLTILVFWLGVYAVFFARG
In words: Crystallization of cytochrome c oxidase ba3 by detergent exchange from β-DDM. As to conditions: pure detergent. As for the experimental part: The facial amphiphiles were evaluated in the crystallization of cytochrome c oxidase ba3 by detergent exchange from β-DDM. Several new crystal forms were obtained depending on which detergent was used, albeit in less than optimal diffraction quality (>6 Å). […] Crystals of human connexin 26 have also been obtained using the purely facial amphiphiles described herein.

Each structure is given as a SMILES string. “And” between values parts separate entries of the source, which are not always exact repeats. Equal entries are not always repeated. Where two headings read alike, the source gives them in different places.

The values that follow come from patent US9085602B1, “Facial amphiphiles and methods of use” (The Scripps Research Institute, priority 2008, dated 2015).

As a reminder, the melting point is the temperature, or range, at which the solid turns liquid.

T1 sequence (P63359 whole entry): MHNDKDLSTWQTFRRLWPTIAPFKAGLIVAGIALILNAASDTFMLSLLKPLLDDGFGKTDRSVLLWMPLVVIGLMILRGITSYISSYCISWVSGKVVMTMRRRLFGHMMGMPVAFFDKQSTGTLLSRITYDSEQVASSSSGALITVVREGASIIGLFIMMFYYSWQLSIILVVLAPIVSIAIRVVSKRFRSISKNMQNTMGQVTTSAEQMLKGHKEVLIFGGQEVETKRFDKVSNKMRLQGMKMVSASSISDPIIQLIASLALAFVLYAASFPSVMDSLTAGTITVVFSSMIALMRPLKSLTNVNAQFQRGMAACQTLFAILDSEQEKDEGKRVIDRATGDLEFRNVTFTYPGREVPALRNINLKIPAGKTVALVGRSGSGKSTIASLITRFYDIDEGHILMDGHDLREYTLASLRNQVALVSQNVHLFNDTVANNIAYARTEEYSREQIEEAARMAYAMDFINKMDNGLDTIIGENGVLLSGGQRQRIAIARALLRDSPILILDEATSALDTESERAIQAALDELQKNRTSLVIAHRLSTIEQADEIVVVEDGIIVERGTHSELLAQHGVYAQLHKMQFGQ
T2 sequence (P63359 whole entry): as above

In [1] (ANS fluorescence assay), `CCC[C@@H](C)[C@H]1CC[C@H]2[C@@H]3[C@H](OCCO[C@@H]4OC(CO)[C@@H](O[C@H]5OC(CO)[C@@H](O)[C@H](O)C5O)[C@H](O)C4O)C[C@@H]4CCCC[C@]4(C)[C@H]3C[C@H](OCCO[C@@H]3OC(CO)[C@@H](O[C@H]4OC(CO)[C@@H](O)[C@H](O)C4O)[C@H](O)C3O)[C@]12C` (stereo partly drawn) [Compound A2, 7α,12α-Di-((O-β-D-maltosyl)-2-hydroxyethoxy)-cholane] gave a CMC of 0.01%. Moreover, in data set [2], the “hydrodynamic radius of the micelle” value is listed as 2.7 nm.
Consider `CCC[C@@H](C)[C@H]1CC[C@H]2[C@@H]3[C@H](OCCO[C@@H]4OC(CO)[C@@H](O)[C@H](O)C4O)C[C@@H]4C[C@H](O)CC[C@]4(C)[C@H]3C[C@H](OCCO[C@@H]3OC(CO)[C@@H](O)[C@H](O)C3O)[C@]12C` (stereo partly drawn) [Compound B2, 3α-hydroxyl-7α,12α-Di-((O-D-glucosyl)-2-hydroxyethoxy)-cholane], for which, in [1] (ANS fluorescence assay), the CMC is recorded as 0.013%.
For the compound `CCCCCCCCCCCO[C@@H]1O[C@H](CO)[C@@H](O[C@H]2O[C@H](CO)[C@@H](O)[C@H](O)[C@H]2O)[C@H](O)[C@H]1O` [β-UDM, Undecyl-β-D-maltoside], in data set [3] (RT, in 2 days), the “loss of ATPase activity of MsbA” value is “more than 70%”. The “ATPase activity of S. typhimurium MsbA, comparison of detergents” value in data set [3] (compared with β-UDM and 24 commercial detergents) was “highest ATPase activity among all 24 commercial detergents tested”. In addition, the “MsbA stability in the detergent (protein solution, ATPase activity)” value in data set [3] (followed for more than a week at RT (about 23° C.)) was “collapsed to form visible aggregates”. Further, the “initial ATPase activity” value in data set [3] (freshly purified MsbA in the detergent, 37° C.) is given as 1.19±0.03 μmol ATP·min^−1·mg^−1. Moreover, on MsbA [4], the detergent binding ratio was 219±13 mol/mol MsbA.
`CCC[C@@H](C)[C@H]1CC[C@H]2[C@@H]3[C@H](OCCO[C@@H]4OC(CO)[C@@H](O[C@H]5OC(CO)[C@@H](O)[C@H](O)C5O)[C@H](O)C4O)C[C@@H]4C[C@H](O)CC[C@]4(C)[C@H]3C[C@H](OCCO[C@@H]3OC(CO)[C@@H](O[C@H]4OC(CO)[C@@H](O)[C@H](O)C4O)[C@H](O)C3O)[C@]12C` (stereo partly drawn) [Compound B1, 3α-hydroxyl-7α,12α-Di-((O-β-D-maltosyl)-2-hydroxyethoxy)-cholane]: the “SAXS of MsbA prepared in the presence of the detergent” value at MsbA [5] was “Favorable results”. Moreover, in data set [1] (ANS fluorescence assay), the CMC amounted to 0.02%. The “hydrodynamic radius of the micelle” value in [2] is 2.2 nm.
As to `CCCCCCCCO[C@@H]1O[C@H](CO)[C@@H](O)[C@H](O)[C@H]1O` [OG, octyl-β-D-glucoside, reference compound], on bacteriorhodopsin (BR), the “stability of BR stored in the detergent” value was “gradually denatured”. Also, the CMC in data set [6] is recorded as 0.53%.
On to `CCCCCCCCCCCCO[C@@H]1O[C@H](CO)[C@@H](O[C@H]2O[C@H](CO)[C@@H](O)[C@H](O)[C@H]2O)[C@H](O)[C@H]1O` [DDM, dodecyl-β-D-maltoside, reference compound], for which the “crystallizability of cytochrome c oxidase ba3” value on cytochrome c oxidase ba3 is recorded as “not crystallizable”. Further, the “hydrodynamic radius of the micelle” value in data set [2] is reported as 3.3-3.4 nm.
`CCC[C@@H](C)[C@H]1CC[C@H]2[C@@H]3[C@H](O[C@@H]4OC(CO)[C@@H](O[C@H]5OC(CO)[C@@H](O)[C@H](O)C5O)[C@H](O)C4O)C[C@@H]4CCCC[C@]4(C)[C@H]3C[C@H](O[C@@H]3OC(CO)[C@@H](O[C@H]4OC(CO)[C@@H](O)[C@H](O)C4O)[C@H](O)C3O)[C@]12C` (stereo partly drawn) [Compound A1, 7α,12α-Di-(O-β-D-maltosyl)-cholane] showed a melting point of 188 to 190 °C. The “UV-vis spectral change of bacteriorhodopsin sample” value on bacteriorhodopsin (BR) (over the course of almost one year) is “no observable UV-vis spectral change”. For the same compound, the “stability of BR stored in the detergent” value on bacteriorhodopsin (BR) was “remained completely stable”. This compound also yielded a CMC in data set [1] of 0.1 mM. This compound yielded a CMC in data set [1] (ANS fluorescence assay) of 0.01%. The “hydrodynamic radius of the micelle” value in data set [2] is 3.0-3.1 nm and 3.0 nm.
